Source: patent US10123993B2, “Cyclic ureas as inhibitors of rock” (BRISTOL-MYERS SQUIBB COMPANY, priority 2015, dated 2018)

Target: ROCK2 (Homo sapiens, UniProt O75116)
Test: ROCK2 kinase inhibition assay (Caliper LABCHIP, FITC peptide substrate)
Type: biochemical
Details: 5 μM ATP, 1.5 μM peptide substrate; value ranges
How it was run: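 Rho kinase with 5 μM ATP and 1.5 μM FITC-AHA-AKRRRLSSLRA-OH peptide in HEPES pH 7.5, 20 mM MgCl2, 0.015% Brij-35, 4 mM DTT, DMSO <2%. EDTA stop; phospho and non-phospho peptide separated on LabChip. IC50 from dose-response fit.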

ROCK2, sequence (O75116 whole entry, species assumed): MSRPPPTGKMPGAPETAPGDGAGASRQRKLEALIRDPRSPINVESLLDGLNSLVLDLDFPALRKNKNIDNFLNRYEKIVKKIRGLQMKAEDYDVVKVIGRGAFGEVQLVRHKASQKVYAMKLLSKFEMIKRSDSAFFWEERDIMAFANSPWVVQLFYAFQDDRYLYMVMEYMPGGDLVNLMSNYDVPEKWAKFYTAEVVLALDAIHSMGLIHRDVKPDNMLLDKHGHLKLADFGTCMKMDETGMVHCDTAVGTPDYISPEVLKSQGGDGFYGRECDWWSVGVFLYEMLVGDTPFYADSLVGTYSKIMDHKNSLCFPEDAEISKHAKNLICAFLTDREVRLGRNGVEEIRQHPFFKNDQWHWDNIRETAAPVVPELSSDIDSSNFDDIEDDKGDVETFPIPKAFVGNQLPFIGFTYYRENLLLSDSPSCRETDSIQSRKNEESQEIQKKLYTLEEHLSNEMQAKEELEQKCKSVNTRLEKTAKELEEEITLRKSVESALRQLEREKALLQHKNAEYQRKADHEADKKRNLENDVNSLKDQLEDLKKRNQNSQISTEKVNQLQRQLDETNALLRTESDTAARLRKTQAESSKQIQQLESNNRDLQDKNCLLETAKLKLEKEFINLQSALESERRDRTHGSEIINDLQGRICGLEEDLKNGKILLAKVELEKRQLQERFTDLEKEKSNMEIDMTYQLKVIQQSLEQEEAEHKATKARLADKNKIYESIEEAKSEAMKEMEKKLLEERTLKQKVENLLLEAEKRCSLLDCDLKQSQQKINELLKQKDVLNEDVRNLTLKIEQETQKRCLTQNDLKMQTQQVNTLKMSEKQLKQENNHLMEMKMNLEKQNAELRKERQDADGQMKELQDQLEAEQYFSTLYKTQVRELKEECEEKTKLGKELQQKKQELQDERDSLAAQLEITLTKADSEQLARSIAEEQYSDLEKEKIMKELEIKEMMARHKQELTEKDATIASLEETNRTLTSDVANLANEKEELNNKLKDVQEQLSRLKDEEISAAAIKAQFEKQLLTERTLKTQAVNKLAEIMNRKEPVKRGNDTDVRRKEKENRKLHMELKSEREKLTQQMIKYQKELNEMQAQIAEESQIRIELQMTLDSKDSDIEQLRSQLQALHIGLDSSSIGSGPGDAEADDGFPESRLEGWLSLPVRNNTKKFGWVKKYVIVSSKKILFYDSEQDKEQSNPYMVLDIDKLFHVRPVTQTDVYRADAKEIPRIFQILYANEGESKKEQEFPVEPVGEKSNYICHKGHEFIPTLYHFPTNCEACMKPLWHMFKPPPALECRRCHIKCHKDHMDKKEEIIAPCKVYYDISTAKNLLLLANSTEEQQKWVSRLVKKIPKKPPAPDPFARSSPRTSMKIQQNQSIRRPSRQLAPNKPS

Row | Structure (SMILES) | IC50
1 | COc1nc(N2CCN(Cc3cccnc3)C2=O)ccc1-c1cn[nH]c1 [Example 253] | 2.1 to 20 nM
2 | COc1nc(N2CCN(CC3CCCO3)C2=O)ccc1-c1cn[nH]c1 (stereo not shown) [Example 254, 1-(6-methoxy-5-(1H-pyrazol-4-yl)pyridin-2-yl)-3-((tetrahydrofuran-2-yl)methyl)imidazolidin-2-one] | 20.1 to 200 nM
3 | COc1nc(N2CCN(Cc3noc(C)n3)C2=O)ccc1-c1cn[nH]c1 [Example 255, 1-((6-methoxy-5-(1H-pyrazol-4-yl)pyridin-2-yl)-3-(5-methyl-1,2,4-oxadiazol-3-yl)methyl)imidazolidin-2-one] | 200 to 2000 nM
4 | CCc1cc(N2CCN([C@H](C)c3cccc(OC)c3)C2=O)ccc1-c1cn[nH]c1 [Example 272, (R)-1-(3-ethyl-4-(1H-pyrazol-4-yl)phenyl)-3-(1-(3-methoxyphenyl)ethyl)imidazolidin-2-one] | 2.1 to 20 nM
5 | COc1cc(CN2C(=O)N(c3ccc(-c4cn[nH]c4)cn3)C[C@H]2CO)ccc1F [Example 311, (S)-1-(5-(1H-Pyrazol-4-yl)pyridin-2-yl)-3-(4-fluoro-3-methoxybenzyl)-4-(hydroxymethyl)imidazolidin-2-one] | 20.1 to 200 nM
6 | COc1cc(F)cc(CN2C(=O)N(c3ccc(-c4cn[nH]c4)cn3)C[C@H]2CO)c1 [Example 312, (S)-1-(5-(1H-pyrazol-4-yl)pyridin-2-yl)-3-(3-fluoro-5-methoxybenzyl)-4-(hydroxymethyl)imidazolidin-2-one] | 2.1 to 20 nM
7 | COc1cc(F)cc(CN2C(=O)N(c3ccc(-c4cn[nH]c4)cn3)C[C@@H]2CO)c1 [Example 313, (R)-1-(5-(1H-pyrazol-4-yl)pyridin-2-yl)-3-(3-fluoro-5-methoxybenzyl)-4-(hydroxymethyl)imidazolidin-2-one] | 20.1 to 200 nM
8 | COc1cccc(CN2C(=O)N(c3ccc(-c4cn[nH]c4)cn3)C[C@H]2CO)c1 [Example 314, (S)-1-(5-(1H-pyrazol-4-yl)pyridin-2-yl)-4-(hydroxymethyl)-3-(3-methoxybenzyl)imidazolidin-2-one] | 2.1 to 20 nM
9 | COc1cccc(CN2CCN(c3ccc(-c4ccncc4F)c(OC)n3)C2=O)c1 [Example 316, 1-(3′-Fluoro-2-methoxy-[3,4′-bipyridin]-6-yl)-3-(3-methoxybenzyl)imidazolidin-2-one] | 2.1 to 20 nM
10 | COc1cccc(CN2CCN(c3ccc(-c4ccnc(F)c4)c(OC)n3)C2=O)c1 [Example 319, 1-(2′-fluoro-2-methoxy-[3,4′-bipyridin]-6-yl)-3-(3-methoxybenzyl)imidazolidin-2-one] | 2.1 to 20 nM
11 | COc1cccc(CN2CCN(c3ccc(-c4c[nH]nc4C)c(OC)n3)C2=O)c1 [Example 320, 1-(6-methoxy-5-(5-methyl-1H-pyrazol-4-yl)pyridin-2-yl)-3-(3-methoxybenzyl)imidazolidin-2-one] | 2.1 to 20 nM
12 | O=c1n(Cc2cccc(F)c2)ccn1-c1ccc(-c2cn[nH]c2)cc1 [Example 321] | 2.1 to 20 nM
13 | COc1cccc(Cn2ccn(-c3ccc(-c4ccnc5[nH]ccc45)cc3)c2=O)c1 [Example 322, 1-(4-(1H-pyrrolo[2,3-b]pyridin-4-yl)phenyl)-3-(3-methoxybenzyl)-1H-imidazol-2(3H)-one] | 2.1 to 20 nM
14 | O=c1n(CCc2ccccc2F)ccn1-c1ccc(-c2cn[nH]c2)cc1 [Example 330, 1-(4-(1H-pyrazol-4-yl)phenyl)-3-(2-fluorophenethyl)-1H-imidazol-2(3H)-one] | 20.1 to 200 nM
15 | CC(c1ccccc1)n1ccn(-c2ccc(-c3cn[nH]c3)cc2)c1=O (stereo not shown) [Example 331, 1-(4-(1H-pyrazol-4-yl)phenyl)-3-(1-phenylethyl)-1H-imidazol-2(3H)-one] | 2.1 to 20 nM
16 | CC(c1ccccc1)n1ccn(-c2ccc(-c3cn[nH]c3)cc2)c1=O (stereo not shown) [Example 332, 1-(4-(1H-pyrazol-4-yl)phenyl)-3-(1-phenylethyl)-1H-imidazol-2(3H)-one] | 20.1 to 200 nM
17 | O=c1n(Cc2cccc(OC(F)F)c2)ccn1-c1ccc(-c2cn[nH]c2)cc1 [Example 333, 1-(4-(1H-pyrazol-4-yl)phenyl)-3-(3-(difluoromethoxy)benzyl)-1H-imidazol-2(3H)-one] | 2.1 to 20 nM

Other lines, results leading:

Row | IC50 | Structure (SMILES)
18 | < 2 nM | COc1nc(N2CCN(Cc3cc(F)cc(F)c3)C2=O)ccc1-c1cn[nH]c1 [Example 247, 1-(3,5-difluorobenzyl)-3-(6-methoxy-5-(1H-pyrazol-4-yl)pyridin-2-yl)imidazolidin-2-one]
19 | < 2 nM | COc1nc(N2CCN(Cc3cccc(F)c3C)C2=O)ccc1-c1cn[nH]c1 [Example 248, 1-(3-fluoro-2-methylbenzyl)-3-(6-methoxy-5-(1H-pyrazol-4-yl)pyridin-2-yl)imidazolidin-2-one]
20 | 20.1 to 200 nM | COc1nc(N2CCN(Cc3ccc(F)cc3C)C2=O)ccc1-c1cn[nH]c1 [Example 249, 1-(4-fluoro-2-methylbenzyl)-3-(6-methoxy-5-(1H-pyrazol-4-yl)pyridin-2-yl)imidazolidin-2-one]
21 | 2.1 to 20 nM | COc1nc(N2CCN(Cc3cc(F)ccc3C)C2=O)ccc1-c1cn[nH]c1 [Example 250, 1-(5-fluoro-2-methylbenzyl)-3-(6-methoxy-5-(1H-pyrazol-4-yl)pyridin-2-yl)imidazolidin-2-one]
22 | 20.1 to 200 nM | COc1cc(F)ccc1CN1CCN(c2ccc(-c3cn[nH]c3)c(OC)n2)C1=O [Example 251, 1-(4-fluoro-2-methoxybenzyl)-3-(6-methoxy-5-(1H-pyrazol-4-yl)pyridin-2-yl)imidazolidin-2-one]
23 | 2.1 to 20 nM | COc1cccc(CN2CCN(c3ccc(-c4cn[nH]c4)c(OC)n3)C2=O)c1F [Example 252, 1-(2-fluoro-3-methoxybenzyl)-3-(6-methoxy-5-(1H-pyrazol-4-yl)pyridin-2-yl)imidazolidin-2-one]
24 | 2.1 to 20 nM | COc1nc(N2CCN(Cc3cccc(Cl)c3)C2=O)ccc1-c1cn[nH]c1 [Example 256, 1-(3-chlorobenzyl)-3-(6-methoxy-5-(1H-pyrazol-4-yl)pyridin-2-yl)imidazolidin-2-one]
25 | 2.1 to 20 nM | COc1nc(N2CCN(Cc3cccc(C)c3)C2=O)ccc1-c1cn[nH]c1 [Example 257, 1-(6-methoxy-5-(1H-pyrazol-4-yl)pyridin-2-yl)-3-(3-methylbenzyl)imidazolidin-2-one]
26 | 2.1 to 20 nM | COc1cc(CN2CCN(c3ccc(-c4cn[nH]c4)cc3)C2=O)ccc1F [Example 263, 1-(4-(1H-pyrazol-4-yl)phenyl)-3-(4-fluoro-3-methoxybenzyl)imidazolidin-2-one]
27 | 20.1 to 200 nM | COc1c(F)cccc1CN1CCN(c2ccc(-c3cn[nH]c3)cc2)C1=O [Example 264, 1-(4-(1H-pyrazol-4-yl)phenyl)-3-(3-fluoro-2-methoxybenzyl)imidazolidin-2-one]
28 | 2.1 to 20 nM | COc1cccc(CN2CCN(c3ccc(-c4cn[nH]c4)c(C)c3)C2=O)c1 [Example 273, 1-(3-methoxybenzyl)-3-(3-methyl-4-(1H-pyrazol-4-yl)phenyl)imidazolidin-2-one]
29 | < 2 nM | COc1cc(F)cc(CN2CCN(c3ccc(-c4cn[nH]c4)c(C)c3)C2=O)c1 [Example 274, 1-(3-fluoro-5-methoxybenzyl)-3-(3-methyl-4-(1H-pyrazol-4-yl)phenyl)imidazolidin-2-one]
30 | 20.1 to 200 nM | COc1cccc(CN2CCN(c3ccc(-c4cn[nH]c4)c(C(F)(F)F)c3)C2=O)c1 [Example 275, 1-(4-(1H-pyrazol-4-yl)-3-(trifluoromethyl)phenyl)-3-(3-methoxybenzyl)imidazolidin-2-one]
31 | 20.1 to 200 nM | COc1cc(F)cc(CN2CCN(c3ccc(-c4cn[nH]c4)c(C(F)(F)F)c3)C2=O)c1 [Example 276, 1-(4-(1H-pyrazol-4-yl)-3-(trifluoromethyl)phenyl)-3-(3-fluoro-5-methoxybenzyl)imidazolidin-2-one]
32 | 200 to 2000 nM | COc1cccc(CN2CCN(c3ccc(-c4cn[nH]c4)c(C#N)c3)C2=O)c1 [Example 277, 5-(3-(3-methoxybenzyl)-2-oxoimidazolidin-1-yl)-2-(1H-pyrazol-4-yl)benzonitrile]
33 | 20.1 to 200 nM | COc1cc(F)cc(CN2CCN(c3ccc(-c4cn[nH]c4)c(C#N)c3)C2=O)c1 [Example 278, 5-(3-(3-fluoro-5-methoxybenzyl)-2-oxoimidazolidin-1-yl)-2-(1H-pyrazol-4-yl)benzonitrile]
34 | 200 to 2000 nM | COc1cc(CN2CCN(c3ccc(-c4cn[nH]c4)c(C#N)c3)C2=O)ccc1F [Example 279, 5-(3-(4-fluoro-3-methoxybenzyl)-2-oxoimidazolidin-1-yl)-2-(1H-pyrazol-4-yl)benzonitrile]
35 | 2.1 to 20 nM | CCc1cc(N2CCN(Cc3cc(F)cc(OC)c3)C2=O)ccc1-c1cn[nH]c1 [Example 280, 1-(3-ethyl-4-(1H-pyrazol-4-yl)phenyl)-3-(3-fluoro-5-methoxybenzyl)imidazolidin-2-one]
36 | 2.1 to 20 nM | CCc1cc(N2CCN(Cc3ccc(F)c(OC)c3)C2=O)ccc1-c1cn[nH]c1 [Example 281, 1-(3-ethyl-4-(1H-pyrazol-4-yl)phenyl)-3-(4-fluoro-3-methoxybenzyl)imidazolidin-2-one]
37 | 2.1 to 20 nM | COc1cc(CN2CCN(c3ccc(-c4cn[nH]c4)c(C)c3)C2=O)ccc1F [Example 282, 1-(4-fluoro-3-methoxybenzyl)-3-(3-methyl-4-(1H-pyrazol-4-yl)-phenyl)imidazolidin-2-one]
38 | 200 to 2000 nM | COc1cc(CN2CCN(c3ccc(-c4cn[nH]c4)c(C(F)(F)F)c3)C2=O)ccc1F [Example 283, 1-(4-(1H-pyrazol-4-yl)-3-(trifluoromethyl)phenyl)-3-(4-fluoro-3-methoxybenzyl)imidazolidin-2-one]
39 | 20.1 to 200 nM | Cc1cc(N2CCN(Cc3cccc(OCC4CC4)c3)C2=O)ccc1-c1cn[nH]c1 [Example 284, 1-(3-(cyclopropylmethoxy)benzyl)-3-(3-methyl-4-(1H-pyrazol-4-yl)phenyl)imidazolidin-2-one]
40 | 200 to 2000 nM | CCc1cc(N2CCN(Cc3cccc(OCC4CC4)c3)C2=O)ccc1-c1cn[nH]c1 [Example 285, 1-(3-(cyclopropylmethoxy)benzyl)-3-(3-ethyl-4-(1H-pyrazol-4-yl)phenyl)imidazolidin-2-one]
